Assay results from patent publication US12474342B2, “Methods for treating cancer and the use of biomarkers as a predictor of clinical sensitivity to therapies” (CELGENE CORPORATION, priority 2016, dated 2025).
Where two headings read alike, the source gives them in different places. Marks after values point to notes of the source that are not given here.

How the values were obtained:
HNT-34 cells = assay: Apoptosis (caspase 3/7 activation), HNT-34; format: cell-based, human; conditions: for EC50: Homo sapiens, read-out: Compound D-induced Apoptosis EC50
KG-1 AML cell cultures = assay: Induction of apoptosis (Annexin V assay), KG-1; format: cell-based; conditions: Homo sapiens, read-out: Induction of Apoptosis by Compound D (Annexin V assay) EC50
GSPT1 [1] = molecular target: T1, GSPT1 (Homo sapiens, UniProt P15170+Q96SW2); assay: GSPT1 protein reduction, western analysis, OCI-AML3; format: cell-based; design: reduction in GSPT1 protein level was evaluated in human normal PBMCs; endogenous in cells; host or cells: primary PBMCs from normal donors (ID 4328, 4379) and AML patients (ID 11SH, 09P6)
T1 sequence (P15170 1-637 isoform P15170-3): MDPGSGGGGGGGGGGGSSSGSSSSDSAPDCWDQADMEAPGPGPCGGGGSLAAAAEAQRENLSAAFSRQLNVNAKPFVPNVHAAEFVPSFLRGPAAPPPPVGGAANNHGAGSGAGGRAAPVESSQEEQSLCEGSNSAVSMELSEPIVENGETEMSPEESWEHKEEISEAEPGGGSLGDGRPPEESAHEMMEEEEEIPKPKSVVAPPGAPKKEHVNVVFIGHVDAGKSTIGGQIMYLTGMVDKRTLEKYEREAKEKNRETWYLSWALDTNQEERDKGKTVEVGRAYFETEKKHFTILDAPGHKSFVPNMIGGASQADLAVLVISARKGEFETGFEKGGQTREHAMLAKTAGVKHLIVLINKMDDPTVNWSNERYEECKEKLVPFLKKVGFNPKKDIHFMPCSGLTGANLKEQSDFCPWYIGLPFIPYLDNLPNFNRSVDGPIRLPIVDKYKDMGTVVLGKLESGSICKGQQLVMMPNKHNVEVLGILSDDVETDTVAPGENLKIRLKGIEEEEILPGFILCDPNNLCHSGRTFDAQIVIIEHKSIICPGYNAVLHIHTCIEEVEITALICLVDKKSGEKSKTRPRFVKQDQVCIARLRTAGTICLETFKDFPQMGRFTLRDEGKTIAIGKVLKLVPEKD
T1 sequence (Q96SW2 whole entry): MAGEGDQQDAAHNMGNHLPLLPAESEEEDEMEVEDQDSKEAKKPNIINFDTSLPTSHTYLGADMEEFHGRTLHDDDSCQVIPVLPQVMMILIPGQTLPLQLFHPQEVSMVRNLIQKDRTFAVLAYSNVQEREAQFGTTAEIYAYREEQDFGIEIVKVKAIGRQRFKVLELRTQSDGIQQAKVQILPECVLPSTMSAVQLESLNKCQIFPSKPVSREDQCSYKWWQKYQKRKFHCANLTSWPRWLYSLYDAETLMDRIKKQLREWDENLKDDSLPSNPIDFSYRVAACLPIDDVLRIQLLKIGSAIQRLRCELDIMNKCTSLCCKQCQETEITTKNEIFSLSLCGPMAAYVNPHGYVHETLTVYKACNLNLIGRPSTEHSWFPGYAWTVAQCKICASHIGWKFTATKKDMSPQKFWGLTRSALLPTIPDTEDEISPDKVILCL
T1 sequence (Q16531 whole entry partner): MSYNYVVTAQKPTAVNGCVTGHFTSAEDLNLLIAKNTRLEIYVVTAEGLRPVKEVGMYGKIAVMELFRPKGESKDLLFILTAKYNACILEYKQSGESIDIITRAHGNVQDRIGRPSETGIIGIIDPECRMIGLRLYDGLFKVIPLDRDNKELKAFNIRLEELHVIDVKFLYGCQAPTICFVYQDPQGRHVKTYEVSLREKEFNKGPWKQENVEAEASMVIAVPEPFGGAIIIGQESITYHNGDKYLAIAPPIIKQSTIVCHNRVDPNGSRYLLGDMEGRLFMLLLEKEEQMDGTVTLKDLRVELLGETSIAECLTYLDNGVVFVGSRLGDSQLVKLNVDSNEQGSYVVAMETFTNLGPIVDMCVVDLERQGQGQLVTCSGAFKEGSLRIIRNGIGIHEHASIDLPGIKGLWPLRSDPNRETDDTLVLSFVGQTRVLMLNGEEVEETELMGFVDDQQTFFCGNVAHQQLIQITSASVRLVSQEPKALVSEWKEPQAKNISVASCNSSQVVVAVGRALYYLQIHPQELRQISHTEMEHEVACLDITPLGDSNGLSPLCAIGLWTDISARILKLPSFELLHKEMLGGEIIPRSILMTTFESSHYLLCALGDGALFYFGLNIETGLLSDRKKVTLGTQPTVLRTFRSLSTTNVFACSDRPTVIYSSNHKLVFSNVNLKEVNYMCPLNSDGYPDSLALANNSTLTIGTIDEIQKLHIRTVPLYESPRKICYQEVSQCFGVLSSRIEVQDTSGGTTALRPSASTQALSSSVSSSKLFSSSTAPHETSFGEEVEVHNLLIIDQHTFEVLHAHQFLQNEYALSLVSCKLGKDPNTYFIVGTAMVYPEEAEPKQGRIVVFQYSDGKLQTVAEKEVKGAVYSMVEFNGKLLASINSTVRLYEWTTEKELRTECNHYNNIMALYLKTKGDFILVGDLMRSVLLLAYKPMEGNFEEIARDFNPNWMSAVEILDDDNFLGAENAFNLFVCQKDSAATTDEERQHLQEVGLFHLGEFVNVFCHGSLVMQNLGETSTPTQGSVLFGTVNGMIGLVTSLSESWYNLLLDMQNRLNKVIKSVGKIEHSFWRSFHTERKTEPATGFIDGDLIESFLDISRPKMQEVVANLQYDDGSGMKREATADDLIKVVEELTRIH
Procedure: The reduction in the level of GSPT1 protein was concentration-dependent over the range of 3 to 1000 nM in eight of the nine AML cell lines and over the range of 300 to 1000 nM in one relatively insensitive AML cell line. The time course of the reduction in GSPT1 by Compound D also was studied for up to 48 hours. The progressive degradation of GSPT1 over the course of 1 to 20 hours was evident in the presence of all concentrations of Compound D studied from 3 to 300 nM in HNT-34, HL-60, and ML-2 cells, with little GSPT1 remaining by 20 hours at 100 or 300 nM Compound D in HNT-34 or HL-60 cells (FIG. 34 and FIG. 35C). Time-dependent reduction in GSPT1 was also observed in KG-1 and OCI-AML2 cells at 3 to 1000 nM Compound D, with little GSPT1 remaining in KG-1 cells at 100 to 300 nM at 24 hours or in OCI-AML2 cells at 300 and 1000 nM at 24 hours (FIG. 35D). Loss of GSPT1 occurred more slowly in Kasumi-1, AML-193, and F36-P cells.
Compound D-mediated GSPT1 reduction at 8 hours was compared to induction of caspase 3/7 activation (apoptosis) at 12, 24, and 48 hour time points in these nine AML cell lines. […] A positive association (r^2=0.50; R=0.71; p value=4.86E-002) was observed between the level of GSPT1 reduction and apoptosis induction in the AML cell panel (FIG. 36), with >90% GSPT1 reduction correlating with induction of apoptosis.

KG-1 cells = assay: Apoptosis (caspase 3/7 activation), KG-1; format: cell-based, human; conditions: for EC50: Homo sapiens, read-out: Compound D-induced Apoptosis EC50
healthy donor PBMCs = assay: Anti-proliferation, healthy donor PBMCs; format: cell-based; conditions: Homo sapiens, PBMC; healthy donor PBMCs (data not shown)
[2] = test system: ATF3, DDIT3, cleaved Caspases, cleaved PARP; assay: UPR and apoptosis pathway components in KG1 cells; format: cell-based, human; conditions: KG1, 200 nM
Procedure: Cells were treated with DMSO alone or 200 nM Compound D. After 2, 4, or 6 hours, the expression levels of various cellular components along UPR or apoptosis pathways were measured. […] Reduction of BIP indicates UPR.
Cells were treated with DMSO alone, 200 nM Compound D, or 200 nM Compound E. After 8 or 12 hours, the expression levels of various cellular components along UPR or apoptosis pathways were measured. […] Reduction of BIP indicates UPR.
To further investigate the timeline of cellular events upon Compound D treatment, KG1 cells were treated with DMSO alone or 200 nM Compound D. At 2, 4, 6, 8, 10, or 12 hours, the expression levels of various cellular components along ATF4 or apoptosis pathways were measured.

OCI-AML3 cells = assay: Anti-proliferation CTG assay, OCI-AML3; format: cell-based, human
Procedure: A plethora of AML cell lines were treated with serial dilutions of Compound D. IC50 value of the anti-proliferation effect of Compound D (as determined in 72-hour CTG assays) in each cell line is summarized in Table 1.
The effect of depletion of GSPT1 on the anti-proliferative effect of compound Compound D and Compound E was also determined in human acute myelogenous leukemia cell lines AML and KG1. Cells were infected with lentiviral vectors expressing control shRNA, shGSPT1-1 or shGSPT1-3 for 7 days and then treated with DMSO, Compound D or Compound E in a titration from 0.0001 μM to 1 μM. Two days after treatment, cell proliferation was measured by CellTiter-Glo cell viability. […] Both shGSPT1-1 and shGSPT1-3 reduced the expression of GSPT1, eRF1, and slightly of CRBN.

GSPT1 [3] = molecular target: T1, GSPT1; assay: GSPT1 protein reduction, western analysis, AML patient PBMCs; format: cell-based; design: reduction in GSPT1 protein level was evaluated in human normal PBMCs; endogenous in cells; host or cells: primary PBMCs from normal donors (ID 4328, 4379) and AML patients (ID 11SH, 09P6); conditions: PBMC sample 11SH (AML)

## O=C1CCC(N2Cc3cc(CNC(=O)C(F)(F)c4ccc(Cl)cc4)ccc3C2=O)C(=O)N1 (centres unmarked) [Compound D, 2-(4-chlorophenyl)-N-((2-(2,6-dioxopiperidin-3-yl)-1-oxoisoindolin-5-yl)methyl)-2,2-difluoroacetamide]
HNT-34 cells; HNT-34, 123 nM, 12 hr
  Average Percent Increase in Apoptosis at 123 nM Compound D, Apoptosis (12 hr): 3%
HNT-34 cells; HNT-34, 123 nM, 24 hr
  Average Percent Increase in Apoptosis at 123 nM Compound D, Apoptosis (24 hr): 12%
HNT-34 cells; HNT-34, 123 nM, 48 hr
  Average Percent Increase in Apoptosis at 123 nM Compound D, Apoptosis (48 hr): 32%
HNT-34 cells; HNT-34, 24 hr
  EC50: 7 nM
HNT-34 cells; HNT-34, 48 hr
  EC50: 4 nM
HNT-34 cells; HNT-34, 96 hr
  EC50: 2 nM
KG-1 AML cell cultures; KG-1, Compound F 0 μM
  EC50: 20 nM
KG-1 AML cell cultures; KG-1, Compound F 0.1 μM
  EC50: 30 nM
KG-1 AML cell cultures; KG-1, Compound F 1.0 μM
  EC50: 100 nM
KG-1 AML cell cultures; KG-1, Compound F 10 μM
  EC50: 1000 nM
KG-1 AML cell cultures; KG-1, Compound F 100 μM
  EC50: 8000 nM
GSPT1 [1]; OCI-AML3, 100 nM, 8 hr, visual interpolation between 3 and 300 nM
  Percent Reduction at 100 nM Compound D GSPTI (8 hr): ~30^b %
GSPT1 [1]; OCI-AML3, 300 nM Compound D, 8 hours
  GSPT1 reduction: 37%
GSPT1 [1]; OCI-AML3, 4-hour exposure
  GSPT1 protein level: barely changed
GSPT1 [1]; OCI-AML3, 300 and 1000 nM, 24 and 48 hours
  loss of GSPT1: slight loss
KG-1 cells; KG-1, 12 hr
  EC50: 53 nM
KG-1 cells; KG-1, 48 hr
  EC50: 39 nM
KG-1 cells; KG-1, 72 hr
  EC50: 26 nM
KG-1 cells; KG-1, 96 hr
  EC50: 25 nM
KG-1 cells; KG-1, 41 nM, 24 hour time point
  average percent increase in apoptosis: 11%
KG-1 cells; KG-1, 123 nM, 12 hr
  Average Percent Increase in Apoptosis at 123 nM Compound D, Apoptosis (12 hr): 2%
KG-1 cells; KG-1, 123 nM, 24 hr
  Average Percent Increase in Apoptosis at 123 nM Compound D, Apoptosis (24 hr): 16%
KG-1 cells; KG-1, 123 nM, 48 hr
  Average Percent Increase in Apoptosis at 123 nM Compound D, Apoptosis (48 hr): 42%
Healthy donor PBMCs
  IC50: > 10000 nM
[2]
  time at which levels of apoptotic markers started to increase: approximately 6 hrs
[2]; 8 or 12 hours
  level of ATF3, DDIT3, cleaved Caspase-3, cleaved Caspase-8, and cleaved PARP: increased the level
OCI-AML3 cells; AML3 parental or control shRNA cells, 0.0001 μM to 1 μM, two days
  cell proliferation (CellTiter-Glo): exhibited anti-proliferative effect, particularly at high concentration
OCI-AML3 cells; Homo sapiens, OCI-AML-3, OCI-AML3, 72-hour CTG assay, read-out: IC50 of the anti-proliferative effect
  IC50: 3400 nM
GSPT1 [3]; 100 nM Compound D, 8 hours
  Reduction in GSPT1 Protein Level: 86%
GSPT1 [3]; 100 nM Compound D, 22 hours
  Reduction in GSPT1 Protein Level: 100%
GSPT1 [3]; 300 nM Compound D, 8 hours
  Reduction in GSPT1 Protein Level: 100%
GSPT1 [3]; 300 nM Compound D, 22 hours
  Reduction in GSPT1 Protein Level: 100%
